In patent publication US7960397B2, “6,9-disubstituted purine derivatives and their use as cosmetics and cosmetic compositions” (Institute of Experimental Botany, Academy of Sciences of …, priority 2007, dated 2011):
Read-outs that look alike come from different tables or passages of the source.

Tests used:
[1] = system: cytokinin-dependent tobacco callus Nicotiana tabacum L. cv. Wisconsin 38; assay: Cytokinin activity in tobacco callus bioassay; type: cell-based; conditions: for concentration with highest activity: growth of tobacco callus, four weeks of cultivation, tested 10^−8 M to 10^−4 M; for Activity (%) [10^−5 mol · l^−1 BAP = 100%]: increase of fresh callus weight at the concentration with highest activity, 10^−5 M BAP = 100%
[2] = system: Amaranthus caudatus cotyledon/hypocotyl explants; assay: Amaranthus bioassay (betacyanin content); design: species or system Amaranthus caudatus var. atropurpurea; conditions: for concentration with highest activity: betacyanin content after 48 h incubation, tested 10^−8 M to 10^−4 M; for Activity (%) [10^−5 mol · l^−1 BAP = 100%]: betacyanin content at the concentration with highest activity, 10^−5 M BAP = 100%
Procedure, shortened: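 Amaranthus caudatus explants (cotyledons plus hypocotyl) from 72 h dark-grown seedlings were incubated in darkness on medium with 10 mmol Na2HPO4–KH2PO4 pH 6.8, 5 mmol tyrosine and test compound; stock was 10^−3 M in DMSO/water. Betacyanin was measured as A537−A620 and activity expressed relative to 10^−5 M BAP (100%).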

excised wheat leaf tips = assay: Antisenescence test, retention of chlorophyll in excised wheat leaf tips; design: species or system Triticum aestivum cv. Hereward; conditions: for activity (%) [10^−4 mol · l^−1 BAP = 100%]: retention of chlorophyll in excised wheat leaf tips at the concentration with highest activity, 10 replicate determinations; for concentration with highest activity: retention of chlorophyll in excised wheat leaf tips, tested range 10^−8 M to 10^−4 M, 96 h in the dark at 25° C.
Procedure, shortened: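 Winter wheat seedlings (Triticum aestivum cv. Hereward) were raised on vermiculite with Knop's solution at 25° C. for 7 days. Tips of the first leaf, 35 mm long (five tips, 100 mg combined), stood in […] of test solution in microtiter wells. After 96 h in the dark at 25° C., chlorophyll was extracted in 80% ethanol at 80° C. and read at 665 nm. Activity is relative to 10^−4 M BAP (100%).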

[3] = system: human diploid fibroblasts (HCA cells, HCA20, HCA40, HCA60); assay: Senescent cells (β-galactosidase staining) in culture of human fibroblasts; type: cell-based; conditions: for SENESCENT CELLS (%) HCA20: human fibroblasts passage 20 (HCA20); for SENESCENT CELLS (%) HCA40: human fibroblasts passage 40 (HCA40); for SENESCENT CELLS (%) HCA60: human fibroblasts passage 60 (HCA60)
Procedure, shortened: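 Fibroblasts taken at passages 20, 40 and 60 were washed and fixed for 5 min at room temperature in 2% formaldehyde/0.2% glutaraldehyde in PBS. After PBS washes, cells were incubated at 37 °C for β-galactosidase staining.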

β-adrenergic receptors = assay: Isoproterenol-induced cAMP synthesis in rat C6 glioma; type: cell-based; conditions: cellular cAMP, simultaneous addition with isoproterenol, 30 min
Procedure: Anti-inflammatory activity. The compounds of formula 1 having anti-inflammatory activities can be used as cosmetics for treating inflammation skin disorders as atopic dermatitis, lichen planus, hyperpigmentation and Herpes simplex lesions. From this reason, rat C6 glioma (ATCC No. CCL107) was cultivated as a monolayer in a serum-free chemically defined medium containing Ham's F10-minimal essential medium (1:1 v/v), 2 mM L-glutamine, 1% (v/v) minimal essential medium vitamins (100×), 1% (v/v) minimal essential medium nonessential amino acids (100×), 100U/ml penicillin, […] streptomycin and 30 nM sodium selenite. Incubation was performed at 37° C. in a humidified atmosphere. The assays were performed in the logarithmic growth phase at a density of 2.5×10^5 cells/cm^2. Intracellular cAMP synthesis was induced by addition of […] (−)isoproterenol. After 30 min incubation at 37° C. the medium was removed and the cellular amount of cAMP was determined using the cAMP-enzyme immunoassay Amersham kit. The I50 value was determined from a dose-response curve in duplicate. The effect of the novel 6,9-disubstituted purines was measured after simultaneous addition with isoproterenol.
As P2Y1-like and A2 purinergic receptors, negatively and positively coupled to adenylate cyclase, respectively, are present in rat C6 glioma, it remains to be determined whether the modulation of the synthesis of cAMP is due to the inhibition of the activation of β-adrenergic receptors by isoproterenol, or due to the activation of purinergic receptors.

[4] = system: Human T-lymphoblastic leukemia cell line CEM; assay: In vitro cytotoxicity, Calcein AM assay; conditions: read-out: GI50 CEM
Procedure: (§1) Because only metabolically active cells cleave Calcein AM, these assays detect viable cells exclusively. The quantity of reduced Calcein AM corresponds to the number of vital cells in the culture.
(§2) The cells were maintained in Nunc/Corning 80 cm^2 plastic tissue culture flasks and cultured in cell culture medium (DMEM with 5 g/l glucose, 2 mM glutamine, 100 U/ml penicillin, 100 mg/ml streptomycin, 10% fetal calf serum and sodium bicarbonate).
(§3) The cell suspensions that were prepared and diluted according to the particular cell type and the expected target cell density (2,500-30,000 cells per well based on cell growth characteristics) were added by pipette (80 ml) into 96-well microtiter plates. Inoculates were allowed a pre-incubation period of 24 hours at 37° C. and 5% CO2 for stabilization. Four-fold dilutions of the intended test concentration were added at time zero in 20 ml aliquots to the microtiter plate wells. Usually, the compound tested was evaluated at six 4-fold dilutions. […] All drug concentrations were examined in duplicate. Incubations of cells with the tested compounds lasted for 72 hours at 37° C., in a 5% CO2 atmosphere and 100% humidity. At the end of the incubation period, the cells were assayed by using Calcein AM. Ten microliters of the stock solution were pipetted into each well and incubated for 1 hour. Fluorescence (FD) was measured with the Labsystem FIA Reader Fluoroscan Ascent (UK).

[5] = system: promyelocytic HL-60 leukemia; assay: In vitro cytotoxicity, Calcein AM assay; conditions: read-out: GI50 HL60
Procedure: as §1, §2, §3

[6] = system: breast carcinoma cell line MCF-7; assay: In vitro cytotoxicity, Calcein AM assay; conditions: read-out: GI50 MCF7
Procedure: as §1, §2, §3

mouse fibroblasts NIH3T3 = assay: In vitro cytotoxicity, Calcein AM assay; conditions: read-out: GI50 NIH-3T3
Procedure: as §1, §2, §3

human osteosarcoma HOS = assay: In vitro cytotoxicity, Calcein AM assay; conditions: read-out: GI50 HOS
Procedure: as §1, §2, §3

[7] = system: human myeloid leukemia K-562; assay: In vitro cytotoxicity, Calcein AM assay; conditions: read-out: GI50 K-562
Procedure: as §1, §2, §3

Structure (SMILES)	concentration with highest activity [1]	Activity (%) [10^−5 mol · l^−1 BAP = 100%] [1]	concentration with highest activity [2]	Activity (%) [10^−5 mol · l^−1 BAP = 100%] [2]	activity (%) [10^−4 mol · l^−1 BAP = 100%] (excised wheat leaf tips)	concentration with highest activity (excised wheat leaf tips)	SENESCENT CELLS (%) HCA20 [3]	SENESCENT CELLS (%) HCA40 [3]	SENESCENT CELLS (%) HCA60 [3]	Effect (modulation of the activity of β-adrenergic receptors) (β-adrenergic receptors)	other results
Oc1ccc(CNc2ncnc3c2ncn3C2CCCCO2)cc1 (stereo not drawn) [6-(4-hydroxybenzylamino)-9-(tetrahydropyran-2-yl)purine]	10^−5 mol · l^−1	36%	10^−4 mol · l^−1	25.3%	10.1%	10^−4 mol · l^−1	5%	5%	16%	1.8-fold fold activation	GI50 ([4]; Homo sapiens, 72 h): > 167 µM; GI50 ([5]; Homo sapiens, HL-60, 72 h): > 167 µM; GI50 ([6]; Homo sapiens, MCF7, 72 h): > 167 µM; GI50 (mouse fibroblasts NIH3T3; Mus musculus, NIH3T3, 72 h): > 167 µM; GI50 (human osteosarcoma HOS; Homo sapiens, 72 h): > 167 µM
Oc1ccc(CNc2ncnc3c2ncn3C2CCCCO2)cc1O (stereo not drawn)	10^−5 mol · l^−1	61%	10^−4 mol · l^−1	52%	71.3%	10^−4 mol · l^−1	3%	4%	15%	1.7-fold fold activation	–
c1ccc(CNc2ncnc3nc[nH]c23)cc1 [benzylamino / H, 6-benzylaminopurine, reference compound]	10^−6 mol · l^−1	100%	10^−5 mol · l^−1	100%	100%	10^−4 mol · l^−1	–	–	–	–	GI50 ([4]; Homo sapiens, 72 h): > 167 µM; GI50 ([5]; Homo sapiens, HL-60, 72 h): > 167 µM; GI50 ([6]; Homo sapiens, MCF7, 72 h): 166 µM; GI50 (mouse fibroblasts NIH3T3; Mus musculus, NIH3T3, 72 h): > 167 µM; GI50 (human osteosarcoma HOS; Homo sapiens, 72 h): > 167 µM; GI50 ([7]; Homo sapiens, K562, 72 h): 139 µM
COc1cc(O)cc(OC)c1CNc1ncnc2c1ncn2C1CCCCO1 (stereo not drawn)	10^−5 mol · l^−1	43%	10^−4 mol · l^−1	12%	22%	10^−4 mol · l^−1	4%	5%	21%	1.3-fol fold activation	–
COc1cc(CNc2ncnc3c2ncn3C2CCCCO2)ccc1O (stereo not drawn)	10^−6 mol · l^−1	62%	10^−4 mol · l^−1	57%	55%	10^−4 mol · l^−1	4%	4%	19%	1.6-fold fold activation	–
Oc1ccccc1CNc1ncnc2[nH]cnc12 [2-hydroxybenzylamino / H, reference compound]	10^−5 mol · l^−1	72.3%	10^−4 mol · l^−1	32.6%	22.4%	10^−4 mol · l^−1	–	–	–	–	GI50 ([4]; CEM, 72 hours, Calcein AM): 69.2 µM; GI50 ([5]; HL60, 72 hours, Calcein AM): 78 µM; GI50 ([6]; MCF7, 72 hours, Calcein AM): > 167 µM; GI50 (mouse fibroblasts NIH3T3; NIH-3T3, 72 hours, Calcein AM): > 167 µM; GI50 (human osteosarcoma HOS; HOS, 72 hours, Calcein AM): > 167 µM; GI50 ([7]; K-562, 72 hours, Calcein AM): > 167 µM
Oc1cccc(CNc2ncnc3[nH]cnc23)c1 [3-hydroxybenzylamino / H, reference compound]	10^−5 mol · l^−1	116%	10^−5 mol · l^−1	99%	105.9%	10^−4 mol · l^−1	–	–	–	–	GI50 ([4]; CEM, 72 hours, Calcein AM): 90.1 µM; GI50 ([5]; HL60, 72 hours, Calcein AM): 79.2 µM; GI50 ([6]; MCF7, 72 hours, Calcein AM): > 167 µM; GI50 (mouse fibroblasts NIH3T3; NIH-3T3, 72 hours, Calcein AM): > 167 µM; GI50 (human osteosarcoma HOS; HOS, 72 hours, Calcein AM): > 167 µM; GI50 ([7]; K-562, 72 hours, Calcein AM): 128 µM
